Reference: PubChem BioAssay (NCI)
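Cells were grown in 96-well plates and exposed to each compound for 48 hours at five concentrations; endpoints were interpolated linearly between bracketing concentrations, or set to the highest concentration if not reached. The concentration for full growth arrest is given as TGI.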

Columns and labels:
Assay in all cases: NCI tumour cell line growth inhibition, 48 h
786-0 renal = system: 786-0 renal
A549 NSCLC = system: A549 NSCLC
ACHN renal = system: ACHN renal
CAKI-1 renal = system: CAKI-1 renal
CCRF-CEM leukemia = system: CCRF-CEM leukemia
COLO 205 colon = system: COLO 205 colon
DLD-1 colon = system: DLD-1 colon
EKVX NSCLC = system: EKVX NSCLC
HCC-2998 colon = system: HCC-2998 colon
HCT-116 colon = system: HCT-116 colon
HCT-15 colon = system: HCT-15 colon
HL-60(TB) leukemia = system: HL-60(TB) leukemia
HOP-18 NSCLC = system: HOP-18 NSCLC
HOP-62 NSCLC = system: HOP-62 NSCLC
HT29 colon = system: HT29 colon
IGROV1 ovarian = system: IGROV1 ovarian
K-562 leukemia = system: K-562 leukemia
KM12 colon = system: KM12 colon
KM20L2 colon = system: KM20L2 colon
LOX IMVI melanoma = system: LOX IMVI melanoma
LXFL 529 NSCLC = system: LXFL 529 NSCLC
M14 melanoma = system: M14 melanoma
M19-MEL melanoma = system: M19-MEL melanoma
MALME-3M melanoma = system: MALME-3M melanoma
MOLT-4 leukemia = system: MOLT-4 leukemia
NCI-H226 lung = system: NCI-H226 lung
NCI-H23 lung = system: NCI-H23 lung
NCI-H460 lung = system: NCI-H460 lung
NCI-H522 lung = system: NCI-H522 lung
OVCAR-3 ovarian = system: OVCAR-3 ovarian
OVCAR-4 ovarian = system: OVCAR-4 ovarian
OVCAR-5 ovarian = system: OVCAR-5 ovarian
OVCAR-8 ovarian = system: OVCAR-8 ovarian
RPMI-8226 leukemia = system: RPMI-8226 leukemia
RXF 393 renal = system: RXF 393 renal
RXF-631 renal = system: RXF-631 renal
SF-268 CNS = system: SF-268 CNS
SF-295 CNS = system: SF-295 CNS
SK-MEL-2 melanoma = system: SK-MEL-2 melanoma
SK-MEL-28 melanoma = system: SK-MEL-28 melanoma
SK-MEL-5 melanoma = system: SK-MEL-5 melanoma
SN12C renal = system: SN12C renal
SNB-19 CNS = system: SNB-19 CNS
SNB-75 CNS = system: SNB-75 CNS
SNB-78 CNS = system: SNB-78 CNS
SR leukemia = system: SR leukemia
SW-620 colon = system: SW-620 colon
U251 CNS = system: U251 CNS
UACC-257 melanoma = system: UACC-257 melanoma
UACC-62 melanoma = system: UACC-62 melanoma
UO-31 renal = system: UO-31 renal
XF 498 CNS = system: XF 498 CNS
DMS 114 small cell lung = system: DMS 114 small cell lung
HOP-92 NSCLC = system: HOP-92 NSCLC
SK-OV-3 ovarian = system: SK-OV-3 ovarian
TK-10 renal = system: TK-10 renal

In the case of CCOC(=O)/C(C1=N[C@H](C(=O)OCC)CS1)=C(\C)O, the TGI (786-0 renal) is reported as over 100 µM, the TGI (A549 NSCLC) is reported as over 100 µM and the TGI (ACHN renal) is reported as over 100 µM. For the same compound, the TGI (CAKI-1 renal) was over 100 µM, the TGI (CCRF-CEM leukemia) was over 100 µM and the TGI (COLO 205 colon) was over 100 µM. For the same compound, the TGI (DLD-1 colon) was over 100 µM, the TGI (EKVX NSCLC) was over 100 µM and the TGI (HCC-2998 colon) was over 100 µM. For the same compound, the TGI (HCT-116 colon) was over 100 µM, the TGI (HCT-15 colon) was over 100 µM and the TGI (HL-60(TB) leukemia) was over 100 µM. For the same compound, the TGI (HOP-18 NSCLC) was over 100 µM, the TGI (HOP-62 NSCLC) was over 100 µM and the TGI (HT29 colon) was over 100 µM. It also gave a TGI (IGROV1 ovarian) of over 100 µM, a TGI (K-562 leukemia) of over 100 µM and a TGI (KM12 colon) of over 100 µM. The TGI (KM20L2 colon) was over 100 µM, the TGI (LOX IMVI melanoma) was over 100 µM and the TGI (LXFL 529 NSCLC) was over 100 µM. The TGI (M14 melanoma) was over 100 µM, the TGI (M19-MEL melanoma) was over 100 µM and the TGI (MALME-3M melanoma) was over 100 µM. The TGI (MOLT-4 leukemia) was over 100 µM, the TGI (NCI-H226 lung) was over 100 µM and the TGI (NCI-H23 lung) was over 100 µM. For the same compound, the TGI (NCI-H460 lung) was over 100 µM, the TGI (NCI-H522 lung) was over 100 µM and the TGI (OVCAR-3 ovarian) was over 100 µM. It also gave a TGI (OVCAR-4 ovarian) of over 100 µM, a TGI (OVCAR-5 ovarian) of over 100 µM and a TGI (OVCAR-8 ovarian) of over 100 µM. The TGI (RPMI-8226 leukemia) was over 100 µM, the TGI (RXF 393 renal) was over 100 µM and the TGI (RXF-631 renal) was over 100 µM. It also gave a TGI (SF-268 CNS) of over 100 µM, a TGI (SF-295 CNS) of over 100 µM and a TGI (SK-MEL-2 melanoma) of over 100 µM. It also gave a TGI (SK-MEL-28 melanoma) of over 100 µM, a TGI (SK-MEL-5 melanoma) of over 100 µM and a TGI (SN12C renal) of over 100 µM. The TGI (SNB-19 CNS) was over 100 µM, the TGI (SNB-75 CNS) was over 100 µM and the TGI (SNB-78 CNS) was over 100 µM. For the same compound, the TGI (SR leukemia) was over 100 µM, the TGI (SW-620 colon) was over 100 µM and the TGI (U251 CNS) was over 100 µM. It also gave a TGI (UACC-257 melanoma) of over 100 µM, a TGI (UACC-62 melanoma) of over 100 µM and a TGI (UO-31 renal) of over 100 µM. For the same compound, the TGI (XF 498 CNS) was over 100 µM.

With Cn1ncc2cc3c(Nc4ccc(Cl)cc4)cccc3nc21 the TGI (786-0 renal) was over 100 µM, the TGI (A549 NSCLC) was 85.3 µM and the TGI (ACHN renal) was 72.5 µM. It also gave a TGI (CAKI-1 renal) of 61.3 µM, a TGI (CCRF-CEM leukemia) of 92.7 µM and a TGI (COLO 205 colon) of 28.1 µM. It also gave a TGI (DLD-1 colon) of over 100 µM, a TGI (DMS 114 small cell lung) of 28.9 µM and a TGI (EKVX NSCLC) of 88 µM. The TGI (HCC-2998 colon) was 54.5 µM, the TGI (HCT-15 colon) was 37.5 µM and the TGI (HL-60(TB) leukemia) was 43.4 µM. It also gave a TGI (HOP-62 NSCLC) of 53 µM, a TGI (HOP-92 NSCLC) of 47.7 µM and a TGI (IGROV1 ovarian) of 38.8 µM. The TGI (K-562 leukemia) was over 100 µM, the TGI (KM12 colon) was 35.6 µM and the TGI (KM20L2 colon) was 34.8 µM. The TGI (LOX IMVI melanoma) was 41.4 µM, the TGI (LXFL 529 NSCLC) was 42.7 µM and the TGI (M14 melanoma) was 46.3 µM. It also gave a TGI (M19-MEL melanoma) of 43.9 µM, a TGI (MALME-3M melanoma) of 56.3 µM and a TGI (MOLT-4 leukemia) of 36.3 µM. The TGI (NCI-H23 lung) was over 100 µM, the TGI (NCI-H460 lung) was 32 µM and the TGI (OVCAR-3 ovarian) was 44 µM. For the same compound, the TGI (OVCAR-4 ovarian) was 40 µM, the TGI (OVCAR-8 ovarian) was 76.1 µM and the TGI (RPMI-8226 leukemia) was 34.2 µM. It also gave a TGI (RXF 393 renal) of 37.6 µM, a TGI (RXF-631 renal) of 74.7 µM and a TGI (SF-268 CNS) of over 100 µM. It also gave a TGI (SF-295 CNS) of 35.3 µM, a TGI (SK-MEL-2 melanoma) of 51.8 µM and a TGI (SK-MEL-28 melanoma) of 35.8 µM. The TGI (SK-MEL-5 melanoma) was 29.4 µM, the TGI (SK-OV-3 ovarian) was over 100 µM and the TGI (SN12C renal) was 70.8 µM. For the same compound, the TGI (SNB-19 CNS) was over 100 µM, the TGI (SNB-75 CNS) was over 100 µM and the TGI (SNB-78 CNS) was over 100 µM. The TGI (SW-620 colon) was 48.8 µM, the TGI (TK-10 renal) was over 100 µM and the TGI (UACC-257 melanoma) was 38.3 µM. It also gave a TGI (UACC-62 melanoma) of 32.7 µM, a TGI (UO-31 renal) of 88.7 µM and a TGI (XF 498 CNS) of 20.5 µM.
